In publication PMC6261342 (Journal of the American Chemical Society, 2018):

Biological target: T1, O-GlcNAc transferase (OGT) (Homo sapiens, UniProt O15294)
T1 sequence (O15294 323-1041): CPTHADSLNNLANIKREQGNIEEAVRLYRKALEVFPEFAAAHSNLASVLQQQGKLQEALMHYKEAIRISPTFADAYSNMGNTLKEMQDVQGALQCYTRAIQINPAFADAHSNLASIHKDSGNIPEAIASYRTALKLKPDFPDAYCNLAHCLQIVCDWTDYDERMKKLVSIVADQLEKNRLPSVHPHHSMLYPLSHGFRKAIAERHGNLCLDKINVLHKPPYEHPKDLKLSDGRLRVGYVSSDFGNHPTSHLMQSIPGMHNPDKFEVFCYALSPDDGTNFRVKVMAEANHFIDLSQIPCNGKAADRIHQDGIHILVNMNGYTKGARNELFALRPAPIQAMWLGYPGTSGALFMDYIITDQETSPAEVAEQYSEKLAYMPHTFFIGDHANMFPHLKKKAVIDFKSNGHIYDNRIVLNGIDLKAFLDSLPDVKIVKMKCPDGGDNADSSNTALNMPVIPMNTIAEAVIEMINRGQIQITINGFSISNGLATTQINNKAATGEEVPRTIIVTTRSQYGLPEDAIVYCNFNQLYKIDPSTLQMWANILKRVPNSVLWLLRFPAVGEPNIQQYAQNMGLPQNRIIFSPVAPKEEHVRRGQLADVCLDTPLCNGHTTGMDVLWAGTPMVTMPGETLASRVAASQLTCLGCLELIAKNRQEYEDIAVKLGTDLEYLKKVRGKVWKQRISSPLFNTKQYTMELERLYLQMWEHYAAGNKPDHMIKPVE
Test: microscale thermophoresis
Format: binding

| SMILES | Kd |
| --- | --- |
| CC(=O)N[C@H]1[C@@H](OP(=O)(O)OP(=O)(O)OC[C@H]2O[C@@H](n3ccc(=O)[nH]c3=O)[C@H](O)[C@@H]2O)O[C@H](CO)[C@@H](O)[C@@H]1O [UDP-GlcNAc] | confirming that the method produced Kds for UDP and UDP-GlcNAc similar to those |
| O=c1ccn([C@@H]2O[C@H](COP(=O)(O)OP(=O)(O)O)[C@@H](O)[C@H]2O)c(=O)[nH]1 [UDP] | confirming that the method produced Kds for UDP and UDP-GlcNAc similar to those |
